# pIC50: −log10 of the molar value.
# Tests used:
# [1] = species: Homo sapiens; assay: (§1) percentage of the free compound in tissue culture medium
# [2] = tested on: Human immunodeficiency virus 1; assay: Potency against Mutant HIV-1 sV179D/L100I/Y181C; format: functional
# [3] = tested on: Human immunodeficiency virus 1; assay: Calculated Potency against Mutant HIV-1 K103N; format: functional
# [4] = tested on: MT2; assay: Antiviral activity against E, Zidovudine resistant clinical strain of HIV in MT-2 cells by yield assay; format: functional; conditions: Homo sapiens
# [5] = tested on: MT2; assay: Antiviral activity against RF strain of HIV in MT-2 cells by yield assay; format: functional; conditions: Homo sapiens
# [6] = tested on: MT2; assay: Antiviral activity against HIV-2 in MT-2 cells by yield assay; format: functional; conditions: Homo sapiens
# [7] = tested on: Human immunodeficiency virus 1; assay: Plasma antiviral activity was evaluated for RF strain of HIV-1; format: functional
# [8] = species: Homo sapiens; assay: (§2) percentage of the free compound in human serum; format: cell-free
# [9] = tested on: Human immunodeficiency virus 1; assay: Potency against Mutant HIV-1 sL100I; format: functional
# [10] = tested on: MT2; assay: Antiviral activity against RF strain of HIV in MT-2 cells by RNA assay; format: functional; conditions: Homo sapiens
# [11] = tested on: Human immunodeficiency virus 1; assay: Calculated Potency against Mutant HIV-1 sL100I; format: functional
# [12] = tested on: Human immunodeficiency virus 1; assay: Plasma Potency against Mutant HIV-1 K103N; format: functional; conditions: Human immunodeficiency virus 1, Plasma
# [13] = tested on: Human immunodeficiency virus 1; assay: Plasma Potency against Mutant HIV-1 sL100I; format: functional; conditions: Human immunodeficiency virus 1, Plasma
# [14] = tested on: Human immunodeficiency virus 1; assay: Potency against Mutant HIV-1 K103N; format: functional
# [15] = tested on: MT2; assay: Protein Binding was evaluated by PB shift in MT-2 by RNA assay; format: functional; conditions: Homo sapiens
# [16] = tested on: Human immunodeficiency virus 1; assay: Plasma Potency against Mutant HIV-1 sV179D/L100I/Y181C; format: functional
# [17] = tested on: Human immunodeficiency virus 1; assay: Calculated Potency against Mutant HIV-1 sV179D/L100I/Y181C; format: functional
# [18] = tested on: Human immunodeficiency virus 1; assay: Antiviral activity toward K103N mutant HIV-1 virus as protein binding adjusted (PB adj).; format: functional
# [19] = tested on: Human immunodeficiency virus 1; assay: Antiviral activity against HIV-1 K103N mutant virus.; format: functional
# [20] = target: Human immunodeficiency virus type 1 reverse transcriptase (Human immunodeficiency virus 1, UniProt Q72547); assay: Inhibition of HIV-1 reverse transcriptase.
# [21] = target: Human immunodeficiency virus type 1 reverse transcriptase (Human immunodeficiency virus 1) (UniProt Q72547); conditions: Plasma
# Description: Effect of human plasma protein binding on antiviral efficacy.
# [22] = tested on: Human immunodeficiency virus 1; assay: In vitro antiviral activity against HIV-1 (L100I).; format: functional
# [23] = tested on: Human immunodeficiency virus 1; assay: Antiviral activity was evaluated for the inhibition of wild-type RF strain of HIV-1 in an in vitro enzyme assay.; format: functional
# [24] = target: Human immunodeficiency virus type 1 reverse transcriptase (Human immunodeficiency virus 1) (UniProt Q72547); assay: Compound was evaluated for the inhibition of HIV-1 Reverse transcriptase
# [25] = tested on: Human immunodeficiency virus 1; assay: Compound was evaluated for the inhibition of wilde-type RF strain of HIV-1; format: functional
# [26] = tested on: Human immunodeficiency virus 1; assay: Compound was evaluated for the inhibition of wide-type RF strain of HIV-1; format: functional
# [27] = tested on: Human immunodeficiency virus 1; assay: Antiviral activity against Thai 9466, a wild-type clinical strain of HIV in PBMC by P24 assay; format: functional
# [28] = tested on: Human immunodeficiency virus 1; assay: Antiviral activity against A018C, Zidovudine resistant clinical strain of HIV in PBMC by P24 assay; format: functional
# [29] = species: Homo sapiens; assay: as §1; format: functional
# [30] = species: Homo sapiens; assay: as §2; format: functional
# [31] = tested on: Human immunodeficiency virus 1; assay: Compound was evaluated for antiviral activity against L100I mutant virus; format: functional
SMILES,IC90 [18] [µM],IC90 ([19]; Human immunodeficiency virus 1) [µM],pIC50 [20],IC90 [21] [µM],IC90 [22] [µM],IC90 [23] [µM],further results
O=C1Nc2ccc(F)c(F)c2[C@@](/C=C/C2CC2)(C(F)(F)F)N1,,,,,,,Free [1]: 53%; IC90 [2]: 0.25 µM; IC90 [3]: 0.011 µM; IC90 [4]: 0.0029 µM; IC90 [5]: 0.0027 µM; IC90 [6]: > 2.8 µM; IC90 [7]: 0.033 µM; Free [8]: 3%; IC90 [9]: 0.0059 µM; IC90 [10]: 0.002 µM; IC90 [11]: 0.0031 µM; IC90 [12]: 0.37 µM; IC90 [13]: 0.1 µM; IC90 [14]: 0.021 µM; IC90 [15]: 0.0035 µM; IC90 [16]: 4.3 µM; IC90 [17]: 0.13 µM
COc1ccc2c(c1)[C@@](C#Cc1ccccn1)(C(F)(F)F)NC(=O)N2,5.88,0.338,6.63,0.138,0.098,0.0081,
O=C1Nc2ccc(F)cc2[C@@](C#CC2CC2)(C(F)(F)F)N1,0.566,0.048,7.30,0.024,0.029,0.002,
O=C1Nc2ccc(F)c(F)c2[C@@](C#CC2CC2)(C(F)(F)F)N1 (stereo in doubt; 13) [listing 1 of 2 here],0.119,0.013,7.13,,0.012,0.0021,
O=C1Nc2ccc(Cl)cc2[C@@](C#CC2CC2)(C(F)(F)F)N1 (stereo in doubt),,,,,,,IC90 [24]: 0.031 µM
O=C1Nc2ccc(F)c(Cl)c2[C@@](C#CC2CC2)(C(F)(F)F)N1,0.178,0.018,7.23,0.027,0.016,0.0027,
CCC#C[C@]1(C(F)(F)F)NC(=O)Nc2ccc(Cl)cc21,0.826,0.026,6.96,0.083,,0.0033,
O=C1Nc2ccc(Cl)cc2[C@@](C#CC2CC2)(C(F)(F)F)N1 (stereo in doubt; 14) [listing 1 of 2 here],0.336,,6.95,,0.018,0.0027,IC90 [19]: 0.022 µM
O=C1Nc2ccc(Cl)cc2[C@@](C#Cc2ccccn2)(C(F)(F)F)N1,3.73,0.16,6.89,0.079,0.064,0.0034,
CC(C)C#C[C@]1(C(F)(F)F)NC(=O)Nc2ccc(F)c(F)c21 (stereo in doubt; 37) [listing 1 of 2 here],,,,,,,IC90 [19]: 0.009 µM; IC90 [25]: 0.0016 µM
O=C1Nc2ccc(F)c(F)c2[C@@](C#CC2CC2)(C(F)(F)F)N1 (stereo in doubt) [listing 1 of 2 here],,,,,,,Free [1]: 37%; Free [8]: 2.8%; IC90 [24]: 0.018 µM
CC(C)C#C[C@]1(C(F)(F)F)NC(=O)Nc2ccc(F)cc21,0.891,0.027,7.41,0.086,0.017,0.0026,
O=C1Nc2cccc(F)c2[C@@](C#CC2CC2)(C(F)(F)F)N1,0.917,0.089,7.21,0.014,0.108,0.0014,
CC(C)C#C[C@]1(C(F)(F)F)NC(=O)Nc2ccc(F)c(F)c21 (stereo in doubt; 20) [listing 1 of 2 here],0.139,0.014,7.04,,0.01,0.0021,
CC(C)C#C[C@]1(C(F)(F)F)NC(=O)Nc2ccc(F)c(F)c21 (stereo in doubt; 37) [listing 2 of 2 here],,,,,,,IC90 [24]: 0.015 µM
CC(C)C#C[C@@]1(C(F)(F)F)NC(=O)Nc2ccc(F)c(F)c21,,,,,,,IC90 [24]: 1.52 µM; IC90 [25]: 0.229 µM
CC(C)C#C[C@]1(C(F)(F)F)NC(=O)Nc2ccc(F)c(Cl)c21,0.074,0.015,7.11,0.015,0.013,0.003,
CC(C)C#C[C@]1(C(F)(F)F)NC(=O)Nc2ccc(Cl)cc21,0.653,0.022,6.55,0.09,0.028,0.003,
O=C1Nc2ccc(F)c(F)c2[C@@](C#Cc2ccccc2)(C(F)(F)F)N1,1.34,0.191,6.74,0.043,0.256,0.0062,
COc1ccc2c(c1)[C@@](C#CC1CC1)(C(F)(F)F)NC(=O)N2,0.396,0.04,6.91,0.029,0.046,0.0029,

SMILES,IC90 [18] [µM],IC90 ([19]; Human immunodeficiency virus 1) [µM],pIC50 [20],IC90 [21] [µM],IC90 [22] [µM],IC90 [23] [µM],further results
COc1ccc2c(c1)[C@@](C#CC(C)C)(C(F)(F)F)NC(=O)N2,0.599,0.056,6.40,0.042,0.028,0.0038,
O=C1Nc2ccc(Cl)cc2[C@@](C#CC2CC2)(C(F)(F)F)N1 (stereo in doubt; 14) [listing 2 of 2 here],,,,0.041,,,
O=C1Nc2cccc(Cl)c2[C@@](C#CC2CC2)(C(F)(F)F)N1,0.441,0.063,7.14,0.018,0.07,0.0025,
CC(C)Nc1cccnc1N1CCN(C(=O)c2cc3cc(NS(C)(=O)=O)ccc3[nH]2)CC1 [DELAVIRDINE],38,1,,,,0.037,
O=C1Nc2ccc(F)cc2[C@@](C#Cc2ccccc2)(C(F)(F)F)N1,3.22,0.322,6.84,0.066,0.677,0.0066,
CC(C)C#C[C@]1(C(F)(F)F)NC(=O)Nc2ccc(F)c(F)c21 (stereo in doubt; 20) [listing 2 of 2 here],,,,0.021,,,
O=C1Nc2ccc(Cl)cc2[C@](C#CC2CC2)(C(F)(F)F)N1,,,,,,,IC90 [24]: 0.267 µM; IC90 [25]: 34 µM
O=C1Nc2ccc(F)c(F)c2[C@@](C#CC2CC2)(C(F)(F)F)N1 (stereo in doubt) [listing 2 of 2 here],,,,,,,IC90 [2]: 0.11 µM; IC90 [3]: 0.004 µM; IC90 [4]: 0.0017 µM; IC90 [26]: 0.0013 µM; IC90 [5]: 0.0023 µM; IC90 [6]: > 0.95 µM; IC90 [7]: 0.018 µM; IC90 [19]: 0.011 µM; IC90 [9]: 0.008 µM; IC90 [10]: 0.0013 µM; IC90 [27]: 0.0019 µM; IC90 [11]: 0.003 µM; IC90 [12]: 0.14 µM; IC90 [28]: 0.0016 µM; IC90 [13]: 0.11 µM; IC90 [14]: 0.011 µM; IC90 [15]: 0.0069 µM; IC90 [16]: 1.46 µM; IC90 [17]: 0.041 µM
O=C1Nc2ccc(Cl)cc2[C@@](C#Cc2ccccc2)(C(F)(F)F)N1,3,0.25,6.56,0.086,0.365,0.0071,
O=C1Nc2ccc(Cl)cc2[C@@](/C=C/C2CC2)(C(F)(F)F)N1,,,,,,,IC90 [2]: 0.32 µM; Free [29]: 39%; IC90 [3]: 0.011 µM; IC90 [4]: 0.0013 µM; IC90 [5]: 0.0019 µM; IC90 [6]: > 2.8 µM; IC90 [7]: 0.04 µM; Free [30]: 2%; IC90 [9]: 0.011 µM; IC90 [10]: 0.0021 µM; IC90 [27]: 0.0009 µM; IC90 [11]: 0.0043 µM; IC90 [12]: 0.55 µM; IC90 [13]: 0.22 µM; IC90 [14]: 0.027 µM; IC90 [15]: 0.0037 µM; IC90 [16]: 6 µM; IC90 [17]: 0.12 µM
O=C1Nc2ccc(F)cc2[C@@](C#Cc2ccccn2)(C(F)(F)F)N1,3.14,0.483,6.90,0.033,0.255,0.005,
CCC#C[C@]1(C(F)(F)F)NC(=O)Nc2ccc(F)cc21,0.71,0.071,7.27,0.025,,0.0025,IC90 [31]: 0.074 µM
O=C1Nc2ccc(F)c(F)c2[C@](C#CC2CC2)(C(F)(F)F)N1,,,,,,,IC90 [24]: 6.6 µM; IC90 [25]: 0.101 µM
O=C1Nc2ccc(F)c(F)c2[C@@](C#CC2CC2)(C(F)(F)F)N1 (stereo in doubt; 13) [listing 2 of 2 here],,,,0.019,,,
O=C1Nc2ccc(Cl)c(F)c2[C@@](C#CC2CC2)(C(F)(F)F)N1,0.151,0.018,6.99,0.04,,0.0048,
COc1ccc2c(c1)[C@@](C#Cc1ccccc1)(C(F)(F)F)NC(=O)N2,3.59,0.283,6.66,0.042,0.462,0.0032,
Cc1ccnc2c1NC(=O)c1cccnc1N2C1CC1 [NEVIRAPINE],10.2,5.1,,0.1,,0.05,
O=C1Nc2ccc(Cl)c(Cl)c2[C@@](C#CC2CC2)(C(F)(F)F)N1,0.196,0.018,6.78,0.088,,0.008,
O=C1Nc2ccc(F)c(F)c2[C@@](C#Cc2ccccn2)(C(F)(F)F)N1,1.31,0.109,7.17,0.024,0.037,0.002,

# Reference: ChEMBL document CHEMBL1133185, “Inhibition of clinically relevant mutant variants of HIV-1 by quinazolinone non-nucleoside reverse transcriptase inhibitors” (J Med Chem, 2000)
